Laboratory results published in patent publication US20080119530A1, “Method for treatment and prevention of ultraviolet light induced skin pathologies” (priority 2006, published 2008).

Columns and labels:
Tg.AC mice = experiment: UV-induced epidermal hyperplasia in mouse skin; type: in vivo
Source text: Animals. Homozygous v-rasHa transgenic mice on an FVB/N background were used in in vivo experiments. To obtain keratinocytes with genetic ablation of Erbb2, loxP sites were inserted flanking exon 2 of Erbb2 such that splicing from exon1 to downstream introns upon Cre recombinase expression creates a frameshift mutation. Mice were maintained in our animal facility and provided with Purina lab chow (Nestle Purina PetCare, St. Louis, Mo.) and water ad libitum. The dorsal skin was clipped one day before treatment using electric clippers (Wahl, Sterling, II) and shaved on the day of treatment with a Remington Microscreen shaver (Madison, N.C.). […] The Ultraviolet-B TL 40W/12 RS bulbs (Philips, Somerset, N.J.) used emitted approximately 30% UVA, 70% UVB and <1% UVC, with a total output of 470 μW/cm^2, as measured with radiometric photodetector probes (Newport, Irvine, Calif.). For tumor experiments, homozygous Tg.AC mice were treated and exposed twice with an interval of 7 d. Tumor number was counted and tumor volume measured weekly using calipers. Skin-fold thickness was measured using calipers (Mitutoyo, Aurora, Ill.) to lightly pinch the dorsal skin. […]
The influence of Erbb2 on epidermal hyperplasia was measured during the first two weeks of the tumor experiment regimen. […]

Erbb3 = experiment: UV-induced phosphorylation of Erbb3; type: cell-based, mouse
Source text: Several methods were developed to regulate Erbb2 expression and activity both in vitro and in vivo.

skin = type: in vivo, mouse
Source text: Real-Time PCR. Selected changes in gene expression were validated using real-time PCR. Sequences supplied by Affymetrix from the probe set of Il1 b (probe: 1449399_a_at), Mmp9 (probe: 1416298_at) and Thbs1 (probe: 1421811_at) were scanned for unique sequences using a stringent blast search (www.ncbi.nlm.nih.gov/BLAST). Sequences spanning exons were selected preferentially for probes and primers for prepared using Assays-by-Design (Applied Biosystems, Foster City, Calif.). Real-time PCR was performed using TaqMan One-Step RT-PCR Master Mix Reagents (Applied Biosystems, Foster City, Calif.) according to the manufacturer's instructions on an ABI Prism 7000 (Applied Biosystems, Foster City, Calif.). The relative efficiency of amplification of the selected gene versus control (GAPDH or actin) was plotted to ensure the slope of total RNA versus ΔCT was less than 0.05. The 2^−ΔΔC^T was used to determine fold-change differences between samples^25.

## COc1cc(/C=C(\C#N)C(N)=O)cc(CSc2nc3ccccc3s2)c1O [AG825]
Tg.AC mice; first week after UV irradiation
  effect on epidermal hyperplasia: minimal
Tg.AC mice; following the second UV irradiation
  epidermal hyperplasia: significantly suppressed
Erbb3
  UV-induced phosphorylation of Erbb3-Tyr1289: blocked
skin; 24 h after UV exposure, qPCR
  fold increase in Mmp9 expression: 1.3 fold
skin; 24 h post-UV, real-time PCR
  Thbs1 expression vs vehicle-treated mice: similar
skin; real-time PCR
  Il1 b expression: fold greater increase after UV in vehicle-treated compared to AG825-treated samples: 6 fold
skin; sham-irradiated skin, real-time PCR
  fold higher Thbs1 expression compared to corresponding control: 2 fold
